# From patent US20080063628A1, “METHODS TO PROMOTE CELL DIFFERENTIATION” (priority 2006, published 2008)
# Experiments:
# [1] = test system: late passage (P14) pancreatic-derived stromal cell line; assay: Two sequential low dose trichostatin A treatments, gene expression by RT-PCR (Example 7); type: cell-based, human; conditions: for HNF (HNF-3 beta) gene expression / Insulin gene expression / Pdx-1 gene expression / glucagon gene expression: 1.25 μM 0-24 h + 96-120 h
# Method: (§1) Several cell lines obtained from different amniotic fluid specimens (see Example 14) and pancreas donors (see Example 13) were tested with similar results. Two lines at similar passage number but derived from different amniotic fluid specimens are shown in Table VII-A and Table VII-B for this example. One of these cell lines was also used in examples 2 and 4 above. In addition, this example also contains comparison data in Table VII-C and Table VII-D for a single pancreatic-derived stromal line grown to early and late passage number.
# (§2) Amniotic fluid derived cells or pancreatic-derived stromal cells were seeded into 24-well tissue culture plates at a density of 5000/cm^2 and cultured in AMNIOMAX (Invitrogen) or DMEM with 10% FBS respectively under standard cell culture conditions until confluent. After the cells reached confluency, amniotic fluid derived cells were treated at time 0 hours with a dose of 500 nM trichostatin A, and pancreatic-derived stromal cells were treated with a dose of 1.25 μM trichostatin A solubilized in DMSO and medium. At time 24 hours, cell cultures underwent a complete medium change to remove all traces of trichostatin A. At time 96 hours, cell cultures were re-fed with fresh medium and received a second dose of trichostatin A at the same concentration as used previously. At time 120 hours, cell cultures again underwent a complete medium change and were cultured for an additional 24 hours or […] total incubation time.
# (§3) Samples were taken daily for RT-PCR at the times indicated in Table VII-A to D. The culture medium was removed, and samples were rinsed in PBS then collected in RLT with β-mercaptoethanol (Qiagen). RNA was purified using the RNeasy Mini Kit (Qiagen) and RNA quantity and quality were determined using a spectrophotometer. cDNA was made using the iScript cDNA synthesis kit (BioRad).
# (§4) Samples of 20 ng cDNA were used in each reaction to determine the expression levels of the following genes in amniotic fluid-derived cells: Gata1, HNF-3 beta, Pdx-1, insulin, and Sox17. Similarly, samples of 20 ng cDNA were used in each reaction to determine the expression level of the following genes in pancreatic-derived cells: glucagon, HNF-3 beta, insulin and Pdx-1. Real-Time PCR was performed on the Applied Biosystems 7500, and data was analyzed using the accompanying software according to the methods described in Example 15.
# (§5) Real-time PCR amplifcation and quantitative analysis. Unless otherwise stated, all reagents were purchased from Applied Biosystems. Real-time PCR reactions were performed using the ABI PRISM™ 7500 Sequence Detection System. TAQMAN™ FAST UNIVERSAL PCR MASTER MIX™ (ABI, CA) was used with 20 ng of reverse transcribed RNA in a total reaction volume of 20 μl. Each cDNA sample was run in duplicate to allow correction of pipetting errors. Primers and FAM-labeled TAQMAN™ probes were used at concentrations of 200 nM. The level of expression for each target gene was normalized using the pre-developed Applied Biosystem's human glyceraldehyde-3-phosphate dehydrogenase (GAPDH) endogenous control kit. Primers and probes were designed using either ABI PRISM PRIMER EXPRESS™ software or a pre-developed ABI gene analysis kit. For each gene, either one of the primers or the probe were designed to be exon-boundary spanning. This eliminated the possibility of the primers/probe binding to any genomic DNA present. The primer and probe sets are listed as follows: Pdx-1 (Hs00426216), Insulin (Hs00355773), glucagon (Hs00174967), and FoxA2 (HNF 3-beta) (Hs00232764). The remaining primers were designed using the PRIMERS program (ABI, CA). After an initial 95° C. incubation for 20 sec, samples were cycled 40 times in two stages: a denaturation step at 95° C. for 3 sec, followed by an annealing/extension step at 60° C. for 30 sec. […]
# [2] = test system: second amniotic fluid-derived cell line; assay: as above; type: cell-based, human; conditions: for Gata1 gene expression / HNF (HNF-3 beta) gene expression / Insulin gene expression / Pdx-1 gene expression / sox17 gene expression: 500 nM 0-24 h + 96-120 h
# Method: as §1, §2, §3, §4, §5
# [3] = 1.25 μM, after the second treatment cycle
# [4] = 1.25 μM, following first treatment
structure (smiles),measurement,setting,value
CC(/C=C/C(=O)NO)=C\[C@@H](C)C(=O)c1ccc(N(C)C)cc1 [trichostatin A],HNF (HNF-3 beta) gene expression,[1]; 24 hrs,+ (detectable between 35 and 40 cycles by RT-PCR)
same,Insulin gene expression,[1]; 24 hrs,nd (not detectable at >40 cycles by RT-PCR)
same,Pdx-1 gene expression,[1]; 24 hrs,+++ (detectable at less than 35 cycles by RT-PCR with SE less than 0.9)
same,glucagon gene expression,[1]; 24 hrs,+++ (detectable at less than 35 cycles by RT-PCR with SE less than 0.9)
same,HNF (HNF-3 beta) gene expression,[1]; 48 hrs,nd (not detectable at >40 cycles by RT-PCR)
same,Pdx-1 gene expression,[1]; 48 hrs,nd (not detectable at >40 cycles by RT-PCR)
same,glucagon gene expression,[1]; 48 hrs,+++ (detectable at less than 35 cycles by RT-PCR with SE less than 0.9)
same,HNF (HNF-3 beta) gene expression,[1]; 72 hrs,nd (not detectable at >40 cycles by RT-PCR)
same,Insulin gene expression,[1]; 72 hrs,nd (not detectable at >40 cycles by RT-PCR)
same,Pdx-1 gene expression,[1]; 72 hrs,nd (not detectable at >40 cycles by RT-PCR)
same,glucagon gene expression,[1]; 72 hrs,+ (detectable between 35 and 40 cycles by RT-PCR)
same,HNF (HNF-3 beta) gene expression,[1]; 96 hrs,nd (not detectable at >40 cycles by RT-PCR)
same,Insulin gene expression,[1]; 96 hrs,nd (not detectable at >40 cycles by RT-PCR)
same,Pdx-1 gene expression,[1]; 96 hrs,nd (not detectable at >40 cycles by RT-PCR)
same,glucagon gene expression,[1]; 96 hrs,nd (not detectable at >40 cycles by RT-PCR)
same,HNF (HNF-3 beta) gene expression,[1]; 120 hrs,+++ (detectable at less than 35 cycles by RT-PCR with SE less than 0.9)
same,Insulin gene expression,[1]; 120 hrs,nd (not detectable at >40 cycles by RT-PCR)
same,Pdx-1 gene expression,[1]; 120 hrs,++ (detectable at less than 35 cycles by RT-PCR with SE greater than 0.9)
same,HNF (HNF-3 beta) gene expression,[1]; 144 hrs,nd (not detectable at >40 cycles by RT-PCR)
same,Insulin gene expression,[1]; 144 hrs,nd (not detectable at >40 cycles by RT-PCR)
same,Pdx-1 gene expression,[1]; 144 hrs,nd (not detectable at >40 cycles by RT-PCR)
same,glucagon gene expression,[1]; 144 hrs,+ (detectable between 35 and 40 cycles by RT-PCR)
same,HNF-3 beta RT-PCR detection cycle,[1]; [3],34 cycles
same,Pdx-1 RT-PCR detection cycle,[1]; [3],34 cycles
same,glucagon RT-PCR detection cycle,[1]; [3],36 cycles
same,HNF-3β RT-PCR detection cycle,[1]; [4],33 cycles
same,Pdx-1 RT-PCR detection cycle,[1]; [4],33 cycles
same,glucagon RT-PCR detection cycle,[1]; [4],33 cycles
same,Pdx-1 RT-PCR detection cycle,"[2]; 0.5 μM, 24 hours",39 cycles
same,Insulin RT-PCR detection cycle,"[2]; 0.5 μM, 72 hours and remainder of the experiment",34 cycles
same,HNF-3 beta RT-PCR detection cycle,"[2]; 0.5 μM, until 72 hours",34 cycles
same,Gata1 gene expression,[2]; 24 hrs,nd (not detectable at >40 cycles by RT-PCR)
same,HNF (HNF-3 beta) gene expression,[2]; 24 hrs,+++ (detectable at less than 35 cycles RT-PCR with SE less than 0.9)
same,Insulin gene expression,[2]; 24 hrs,nd (not detectable at >40 cycles by RT-PCR)
same,Pdx-1 gene expression,[2]; 24 hrs,+ (detectable between 35 and 40 cycles RT-PCR)
same,sox17 gene expression,[2]; 24 hrs,+++ (detectable at less than 35 cycles RT-PCR with SE less than 0.9)
same,Gata1 gene expression,[2]; 48 hrs,nd (not detectable at >40 cycles by RT-PCR)
same,HNF (HNF-3 beta) gene expression,[2]; 48 hrs,+++ (detectable at less than 35 cycles RT-PCR with SE less than 0.9)
same,Insulin gene expression,[2]; 48 hrs,nd (not detectable at >40 cycles by RT-PCR)
same,Pdx-1 gene expression,[2]; 48 hrs,nd (not detectable at >40 cycles by RT-PCR)
same,sox17 gene expression,[2]; 48 hrs,+++ (detectable at less than 35 cycles RT-PCR with SE less than 0.9)
same,Gata1 gene expression,[2]; 72 hrs,nd (not detectable at >40 cycles by RT-PCR)
same,HNF (HNF-3 beta) gene expression,[2]; 72 hrs,+++ (detectable at less than 35 cycles RT-PCR with SE less than 0.9)
same,Insulin gene expression,[2]; 72 hrs,+++ (detectable at less than 35 cycles RT-PCR with SE less than 0.9)
same,Pdx-1 gene expression,[2]; 72 hrs,nd (not detectable at >40 cycles by RT-PCR)
same,sox17 gene expression,[2]; 72 hrs,+++ (detectable at less than 35 cycles RT-PCR with SE less than 0.9)
same,Gata1 gene expression,[2]; 96 hrs,nd (not detectable at >40 cycles by RT-PCR)
same,HNF (HNF-3 beta) gene expression,[2]; 96 hrs,+ (detectable between 35 and 40 cycles RT-PCR)
same,Insulin gene expression,[2]; 96 hrs,+++ (detectable at less than 35 cycles RT-PCR with SE less than 0.9)
same,Pdx-1 gene expression,[2]; 96 hrs,nd (not detectable at >40 cycles by RT-PCR)
same,sox17 gene expression,[2]; 96 hrs,+++ (detectable at less than 35 cycles RT-PCR with SE less than 0.9)
same,Gata1 gene expression,[2]; 120 hrs,nd (not detectable at >40 cycles by RT-PCR)
same,HNF (HNF-3 beta) gene expression,[2]; 120 hrs,+ (detectable between 35 and 40 cycles RT-PCR)
same,Insulin gene expression,[2]; 120 hrs,+ (detectable between 35 and 40 cycles RT-PCR)
same,Pdx-1 gene expression,[2]; 120 hrs,nd (not detectable at >40 cycles by RT-PCR)
same,sox17 gene expression,[2]; 120 hrs,+++ (detectable at less than 35 cycles RT-PCR with SE less than 0.9)
same,Gata1 gene expression,[2]; 144 hrs,nd (not detectable at >40 cycles by RT-PCR)
same,HNF (HNF-3 beta) gene expression,[2]; 144 hrs,+ (detectable between 35 and 40 cycles RT-PCR)
same,Insulin gene expression,[2]; 144 hrs,+++ (detectable at less than 35 cycles RT-PCR with SE less than 0.9)
same,Pdx-1 gene expression,[2]; 144 hrs,nd (not detectable at >40 cycles by RT-PCR)
same,sox17 gene expression,[2]; 144 hrs,+++ (detectable at less than 35 cycles RT-PCR with SE less than 0.9)
